Measured values reported in ChEMBL document CHEMBL4616724, “Topoisomerase Inhibitors Addressing Fluoroquinolone Resistance in Gram-Negative Bacteria” (J Med Chem, 2020).
Converted amounts (≈) assume the structure as drawn.

Legend:
[1] = Dose normalized Cmax in rat at 10 mg/kg, po measured up to 24 hrs by LC-MS/MS analysis; type: ADME, organism-based; settings: in vivo
[2] = Dissociation constant, pKa of the compound by UV metric method; type: physicochemical
[3] = tested on: Escherichia coli; test: Antibacterial activity against Escherichia coli BW25113/JW0451-2 harboring AcrB deletion mutant by CLSI-based broth microdilution assay; type: functional
[4] = Dose normalized Cmax in mouse at 5 mg/kg, po measured up to 24 hrs by LC-MS/MS analysis; type: ADME, organism-based; settings: in vivo
[5] = tested on: HepG2; test: Cytotoxicity against human HepG2 cells assessed as reduction in cell viability after 72 hrs by Cell-titer Glo assay; type: cell-based; settings: HepG2, 72 h
[6] = tested on: Escherichia coli; test: Antibacterial activity against Escherichia coli ATCC 25922 infected in mouse model of neutropenic thigh infection compound administered subcutaneously 2 hrs post infection and measured after 24 hrs by serial dilution method; type: functional
[7] = tested on: Klebsiella pneumoniae; test: Antibacterial activity against wild type Klebsiella pneumoniae ATCC 43816 by CLSI-based broth microdilution assay; type: functional
[8] = Oral bioavailability in rat at 10 mg/kg measured up to 24 hrs by LC-MS/MS analysis; type: ADME, organism-based; settings: in vivo
[9] = Intrinsic clearance in mouse liver microsomes at 1 uM in presence of NADPH and measured up to 30 mins by LC-MS/MS analysis; type: ADME, Microsome; settings: read-out: CLH
[10] = tested on: Citrobacter; test: Antibacterial activity against Citrobacter clinical isolates by CLSI-based broth microdilution assay; type: functional
[11] = tested on: Escherichia coli; test: Bacteriostatic activity against Escherichia coli ATCC 25922 infected in mouse model of neutropenic thigh infection assessed as static dose compound administered subcutaneously 2 hrs post infection and measured after 24 hrs by serial dilution method; type: functional
[12] = Intrinsic clearance in human liver microsomes at 1 uM in presence of NADPH and measured up to 30 mins by LC-MS/MS analysis; type: ADME, Microsome; settings: read-out: CLH
[13] = Solubility of the compound in pH 7 PBS incubated for 24 hrs under gently shaking condition by UPLC/UV/CLND/MS analysis; type: physicochemical; settings: PBS, pH 7
[14] = tested on: Klebsiella oxytoca; test: Antibacterial activity against Klebsiella oxytoca clinical isolates by CLSI-based broth microdilution assay; type: functional
[15] = Efflux ratio of apparent permeability in human Caco2 cells at 10 uM after 2 hrs by LC-MS/MS analysis; type: ADME, cell-based; settings: Caco-2
[16] = tested on: Morganella morganii; test: Antibacterial activity against Morganella morganii clinical isolates by CLSI-based broth microdilution assay; type: functional
[17] = target: Voltage-gated inwardly rectifying potassium channel KCNH2 (Homo sapiens, UniProt Q12809); test: Inhibition of human ERG expressed in CHOK1 cells measured for 10 mins by QPatch automated patch-clamp assay; type: cell-based, CHO-K1
Voltage-gated inwardly rectifying potassium channel KCNH2, sequence (Q12809 whole entry): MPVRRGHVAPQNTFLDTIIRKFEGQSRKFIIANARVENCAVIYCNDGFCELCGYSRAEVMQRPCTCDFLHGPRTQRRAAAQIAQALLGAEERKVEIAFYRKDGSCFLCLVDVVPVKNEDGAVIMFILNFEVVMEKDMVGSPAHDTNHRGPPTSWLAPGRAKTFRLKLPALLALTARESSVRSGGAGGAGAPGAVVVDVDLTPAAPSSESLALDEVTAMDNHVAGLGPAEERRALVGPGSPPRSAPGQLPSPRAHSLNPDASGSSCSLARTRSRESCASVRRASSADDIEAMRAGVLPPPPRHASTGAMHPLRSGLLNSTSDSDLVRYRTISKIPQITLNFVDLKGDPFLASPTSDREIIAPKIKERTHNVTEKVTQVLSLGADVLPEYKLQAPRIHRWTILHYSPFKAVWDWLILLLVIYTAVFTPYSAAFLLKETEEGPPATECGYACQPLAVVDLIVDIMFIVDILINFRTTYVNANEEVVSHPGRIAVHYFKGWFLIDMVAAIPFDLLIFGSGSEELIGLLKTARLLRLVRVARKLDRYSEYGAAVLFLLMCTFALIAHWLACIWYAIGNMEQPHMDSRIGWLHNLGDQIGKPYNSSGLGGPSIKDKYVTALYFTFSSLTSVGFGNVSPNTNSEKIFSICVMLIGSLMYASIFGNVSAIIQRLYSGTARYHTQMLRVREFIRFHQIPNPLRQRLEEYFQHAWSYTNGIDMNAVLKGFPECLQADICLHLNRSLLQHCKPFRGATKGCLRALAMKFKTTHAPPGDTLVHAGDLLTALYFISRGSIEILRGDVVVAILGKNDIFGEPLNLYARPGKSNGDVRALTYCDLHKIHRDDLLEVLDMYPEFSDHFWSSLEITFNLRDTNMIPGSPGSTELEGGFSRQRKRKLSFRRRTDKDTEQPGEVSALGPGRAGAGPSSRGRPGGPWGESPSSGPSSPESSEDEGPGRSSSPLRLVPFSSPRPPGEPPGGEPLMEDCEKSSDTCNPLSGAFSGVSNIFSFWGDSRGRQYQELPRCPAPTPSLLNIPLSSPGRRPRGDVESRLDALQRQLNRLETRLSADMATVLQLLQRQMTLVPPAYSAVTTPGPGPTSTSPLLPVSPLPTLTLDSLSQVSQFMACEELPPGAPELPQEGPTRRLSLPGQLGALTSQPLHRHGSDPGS

[18] = Volume of distribution at steady state in rat at 5 mg/kg, iv or 10 mg/kg, po measured up to 24 hrs by LC-MS/MS analysis; type: ADME, organism-based; settings: in vivo, read-out: Vdss
[19] = tested on: Escherichia coli; test: Ratio of MIC for antibacterial activity against wild type Escherichia coli ATCC 25922 at pH 5.8 to MIC for antibacterial activity against wild type Escherichia coli ATCC 25922 at pH 7.4; type: functional
[20] = Tmax in mouse at 5 mg/kg, po measured up to 24 hrs by LC-MS/MS analysis; type: ADME, organism-based; settings: in vivo
[21] = tested on: Pseudomonas aeruginosa; test: Antibacterial activity against Pseudomonas aeruginosa NB52023 harboring gyrA T83I mutant/ParC S87L mutant by CLSI-based broth microdilution assay; type: functional
[22] = tested on: Escherichia coli; test: Antibacterial activity against Escherichia coli clinical isolates by CLSI-based broth microdilution assay; type: functional
[23] = Tmax in rat at 10 mg/kg, po measured up to 24 hrs by LC-MS/MS analysis; type: ADME, organism-based; settings: in vivo
[24] = Dose normalized AUC in mouse at 5 mg/kg, po measured up to 24 hrs by LC-MS/MS analysis; type: ADME, organism-based; settings: in vivo
[25] = Volume of distribution at steady state in mouse at 5 mg/kg, iv or po measured up to 24 hrs by LC-MS/MS analysis; type: ADME, organism-based; settings: in vivo, read-out: Vdss
[26] = Inhibition of recombinant full-length C-terminal His6-tagged Escherichia coli DNA topoisomerase 4 subunit ParC/ParE using kinetoplast DNA as substrate preincubated for 30 mins followed by substrate addition and measured after 1 hr in presence of ATP by size exclusion chromatography
[27] = tested on: Escherichia coli; test: Antibacterial activity against wild type Escherichia coli ATCC 25922 at pH 5.8 by CLSI-based broth microdilution assay; type: functional
[28] = Protein binding in Sprague-Dawley rat plasma at 10 uM incubated for 4 hrs under shaking condition by LC-MS/MS analysis; type: ADME, cell-free; settings: read-out: PPB (converted)
[29] = Dose normalized AUC in rat at 10 mg/kg, po measured up to 24 hrs by LC-MS/MS analysis; type: ADME, organism-based; settings: in vivo
[30] = Photoirradiation factor, ratio of IC50 for BALB/c mouse 3T3 cells under dark condition to IC50 for BALB/c mouse 3T3 cells under 5 J/cm2 sunlight irradiation by neutral red uptake assay; type: ADME, cell-based, NIH3T3; settings: BALB/c 3T3 cells, read-out: Ratio IC50
[31] = tested on: Pseudomonas aeruginosa; test: Antibacterial activity against Pseudomonas aeruginosa clinical isolates by CLSI-based broth microdilution assay; type: functional
[32] = tested on: NIH3T3; test: Phototoxicity against BALB/c mouse 3T3 cells assessed as reduction in cell viability preincubated for 1 hr followed by 5 J/cm2 UVA sunlight irradiation for 50 mins and subsequent replacement of medium and measured after 24 hrs by neutral red uptake assay; type: cell-based; settings: NIH3T3, light or radiation study
[33] = Intrinsic clearance in rat liver microsomes at 1 uM in presence of NADPH and measured up to 30 mins by LC-MS/MS analysis; type: ADME, Microsome; settings: read-out: CLH
[34] = Protein binding in pooled human plasma at 10 uM incubated for 4 hrs under shaking condition by LC-MS/MS analysis; type: ADME, cell-free; settings: read-out: PPB (converted)
[35] = tested on: Enterobacter; test: Antibacterial activity against Enterobacter clinical isolates by CLSI-based broth microdilution assay; type: functional
[36] = tested on: Klebsiella pneumoniae; test: Antibacterial activity against Klebsiella pneumoniae clinical isolates by CLSI-based broth microdilution assay; type: functional
[37] = Terminal half life in mouse at 5 mg/kg, iv measured up to 24 hrs by LC-MS/MS analysis; type: ADME, organism-based; settings: in vivo, read-out: beta t1/2 (converted)
[38] = tested on: MOLT-4; test: Cytotoxicity against human MOLT4 cells assessed as reduction in cell viability after 72 hrs by Cell-titer Glo assay; type: cell-based; settings: MOLT-4, 72 h
[39] = tested on: K562; test: Cytotoxicity against human K562 cells assessed as reduction in cell viability after 72 hrs by Cell-titer Glo assay; type: cell-based; settings: K562, 72 h

In the case of `Cc1c(N2CC3CC3(N)C2)c(F)cc2c(CN)c(F)c(=O)n(C3CC3)c12` (stereo not drawn), the Cmax/dose [1] is reported as 0.01 µM/mg/kg, the pKa [2] is reported as 7.6 to 8 and the MIC [3] is reported as no more than 0.03 mg/L. The Cmax/dose [4] was 0.1 µM/mg/kg, the EC50 [5] was 82 µM and the MIC [6] was 0.06 mg/L (≈ 0.166 µM). For the same molecule, the MIC [7] was 0.125 mg/L (≈ 0.347 µM), the bioavailability [8] was 15% and the microsomal CLint at 1 µM [9] was 40 µL/min/mg. It also gave an MIC [10] of 0.06 to 32 mg/L (≈ 0.166 to 88.8 µM), an MIC50 [10] of 1 mg/L (≈ 2.77 µM) and an MIC90 [10] of 8 mg/L (≈ 22.2 µM). For the same molecule, the Activity [11] was 45.5 mg/kg/day, the microsomal CLint at 1 µM [12] was 18 µL/min/mg and the solubility at 24 h [13] was 1.28 mg/mL (≈ 3540 µM). For the same molecule, the MIC [14] was 0.06 to 32 mg/L (≈ 0.166 to 88.8 µM), the MIC50 [14] was 1 mg/L (≈ 2.77 µM) and the MIC90 [14] was 8 mg/L (≈ 22.2 µM). For the same molecule, the efflux ratio at 2 h, 10 µM [15] was 1.8, the MIC [16] was 0.06 to 32 mg/L (≈ 0.166 to 88.8 µM) and the MIC50 [16] was 1 mg/L (≈ 2.77 µM). The MIC90 [16] was 8 mg/L (≈ 22.2 µM), the IC50 [17] was 114 µM and the Vd [18] was 24.1 L/kg. For the same molecule, the Ratio [19] was 512, the Tmax [20] was 0.5 h and the MIC [21] was 0.5 mg/L (≈ 1.39 µM). The MIC [22] was 0.06 to 8 mg/L (≈ 0.166 to 22.2 µM), the MIC50 [22] was 1 mg/L (≈ 2.77 µM) and the MIC90 [22] was 2 mg/L (≈ 5.55 µM). The Tmax [23] was 1.3 h, the AUC/dose [24] was 0.31 µM·h/mg/kg and the Vd [25] was 5.1 L/kg. The IC50 [26] was 0.81 µM, the MIC [27] was 32 mg/L (≈ 88.8 µM) and the fraction unbound at 4 h, 10 µM [28] was 0.42. The AUC/dose [29] was 0.1 µM·h/mg/kg, the selectivity ratio [30] was 621 and the MIC [31] was 1 to 32 mg/L (≈ 2.77 to 88.8 µM). It also gave an MIC50 [31] of 8 mg/L (≈ 22.2 µM), an MIC90 [31] of 32 mg/L (≈ 88.8 µM) and an IC50 [32] of 1.61 µM. For the same molecule, the microsomal CLint at 1 µM [33] was 117 µL/min/mg, the fraction unbound at 4 h, 10 µM [34] was 0.65 and the MIC [35] was 0.06 to 32 mg/L (≈ 0.166 to 88.8 µM). The MIC50 [35] was 1 mg/L (≈ 2.77 µM), the MIC90 [35] was 8 mg/L (≈ 22.2 µM) and the MIC [36] was 0.25 to 32 mg/L (≈ 0.694 to 88.8 µM). For the same molecule, the MIC50 [36] was 4 mg/L (≈ 11.1 µM), the MIC90 [36] was 16 mg/L (≈ 44.4 µM) and the half-life [37] was 1.7 h. For the same molecule, the EC50 [38] was 29 µM and the EC50 [39] was 40 µM.
